# Source: PMC5218480 (PLoS ONE, 2017)
# System: MV-4-11 cells
# Assay: Gene expression microarray analysis (Affymetrix PrimeView) and GSEA
# Format: cell-based, human
# Set-up: RFU PODN (11730768_x_at) / Fold change /veh PODN (11730768_x_at) / RFU LINC00158 (11744669_a_at) / Fold change /veh LINC00158 (11744669_a_at) / RFU DUSP10 (11751237_a_at) / Fold change /veh DUSP10 (11751237_a_at) / RFU ID3 (11757404_x_at) / Fold change /veh ID3 (11757404_x_at) / RFU PLEKHG5 (11737974_s_at) / Fold change /veh PLEKHG5 (11737974_s_at) / RFU LRRC4B (11730491_at) / Fold change /veh LRRC4B (11730491_at) / RFU GIMAP4 (11747438_a_at) / Fold change /veh GIMAP4 (11747438_a_at) / RFU KRT8 (11758183_x_at) / Fold change /veh KRT8 (11758183_x_at) / RFU CNN1 (11734310_a_at) / Fold change /veh CNN1 (11734310_a_at) / RFU VPS37D (11726825_at) / Fold change /veh VPS37D (11726825_at) / RFU C10orf10 (11716522_x_at) / Fold change /veh C10orf10 (11716522_x_at) / RFU KIR2DL2 /// KIR2DL4 /// KIR2DL5A /// KIR2DL5B /// KIR2DS1 /// KIR2DS2 /// KIR2DS3 /// KIR2DS4 /// KIR3DL3 /// KIR3DL3 /// KIR3DS1 (11738374_at) / Fold change /veh KIR2DL2 /// KIR2DL4 /// KIR2DL5A /// KIR2DL5B /// KIR2DS1 /// KIR2DS2 /// KIR2DS3 /// KIR2DS4 /// KIR3DL3 /// KIR3DL3 /// KIR3DS1 (11738374_at) / RFU C1QL1 (11718748_at) / Fold change /veh C1QL1 (11718748_at) / RFU TMPRSS4 (11747572_a_at) / Fold change /veh TMPRSS4 (11747572_a_at) / RFU HAMP (11756126_x_at) / Fold change /veh HAMP (11756126_x_at) / RFU RNFT2 (11725882_a_at) / Fold change /veh RNFT2 (11725882_a_at) / RFU NR4A2 (11747474_a_at) / Fold change /veh NR4A2 (11747474_a_at) / RFU ABCC12 (11746883_a_at) / Fold change /veh ABCC12 (11746883_a_at) / RFU TMEM136 (11760407_x_at) / Fold change /veh TMEM136 (11760407_x_at) / RFU CLDN22 /// WWC2 (11732394_at) / Fold change /veh CLDN22 /// WWC2 (11732394_at) / RFU HLA-DPB1 (11760878_x_at) / Fold change /veh HLA-DPB1 (11760878_x_at) / RFU SPINT1 (11716480_a_at) / Fold change /veh SPINT1 (11716480_a_at) / RFU GAP43 (11754022_s_at) / Fold change /veh GAP43 (11754022_s_at) / RFU A4GNT (11735810_at) / Fold change /veh A4GNT (11735810_at) / RFU PRB3 (11715151_x_at) / Fold change /veh PRB3 (11715151_x_at) / RFU TUBB4B (11761932_at) / Fold change /veh TUBB4B (11761932_at) / RFU CAPN14 (11732068_a_at) / Fold change /veh CAPN14 (11732068_a_at) / RFU TMCC2 (11721928_a_at) / Fold change /veh TMCC2 (11721928_a_at) / RFU IRGQ (11745062_a_at) / Fold change /veh IRGQ (11745062_a_at) / RFU FAM174B (11720279_a_at) / Fold change /veh FAM174B (11720279_a_at) / RFU TMPRSS4 (11748680_a_at) / Fold change /veh TMPRSS4 (11748680_a_at) / RFU FAM212B (11763350_a_at) / Fold change /veh FAM212B (11763350_a_at) / RFU PLEKHG5 (11743358_a_at) / Fold change /veh PLEKHG5 (11743358_a_at) / RFU ZSCAN30 (11745921_a_at) / Fold change /veh ZSCAN30 (11745921_a_at) / RFU CMKLR1 (11741424_a_at) / Fold change /veh CMKLR1 (11741424_a_at) / RFU LOC101060620 /// MAPK8IP1 (11723275_at) / Fold change /veh LOC101060620 /// MAPK8IP1 (11723275_at) / RFU SPTSSB (11747773_x_at) / Fold change /veh SPTSSB (11747773_x_at) / RFU PRSS12 (11739890_at) / Fold change /veh PRSS12 (11739890_at) / RFU BIN1 (11741810_x_at) / Fold change /veh BIN1 (11741810_x_at) / RFU WNT11 (11732464_a_at) / Fold change /veh WNT11 (11732464_a_at) / RFU C10orf10 (11716521_a_at) / Fold change /veh C10orf10 (11716521_a_at) / RFU C5orf56 (11738089_at) / Fold change /veh C5orf56 (11738089_at) / RFU CYB561 (11721691_x_at) / Fold change /veh CYB561 (11721691_x_at) / RFU ANKRD19P (11752326_a_at) / Fold change /veh ANKRD19P (11752326_a_at) / RFU OR2T12 /// OR2T33 /// OR2T8 (11738714_s_at) / Fold change /veh OR2T12 /// OR2T33 /// OR2T8 (11738714_s_at) / RFU VCAN (11748164_a_at) / Fold change /veh VCAN (11748164_a_at) / RFU JSRP1 (11732532_at) / Fold change /veh JSRP1 (11732532_at) / RFU KRTAP10-11 (11738290_x_at) / Fold change /veh KRTAP10-11 (11738290_x_at) / RFU MYO3A (11730013_a_at) / Fold change /veh MYO3A (11730013_a_at) / RFU EBF3 (11725865_a_at) / Fold change /veh EBF3 (11725865_a_at) / RFU CAMK2N1 (11719241_x_at) / Fold change /veh CAMK2N1 (11719241_x_at) / RFU C5orf56 (11738088_a_at) / Fold change /veh C5orf56 (11738088_a_at) / RFU OLFML3 (11715873_a_at) / Fold change /veh OLFML3 (11715873_a_at) / RFU LOC100653217 /// NTM (11731650_a_at) / Fold change /veh LOC100653217 /// NTM (11731650_a_at) / RFU MAPK11 (11762145_a_at) / Fold change /veh MAPK11 (11762145_a_at) / RFU FIZ1 (11724087_x_at) / Fold change /veh FIZ1 (11724087_x_at) / RFU OASL (11726364_x_at) / Fold change /veh OASL (11726364_x_at) / RFU SOX15 (11748057_x_at) / Fold change /veh SOX15 (11748057_x_at) / RFU CD79A (11719716_a_at) / Fold change /veh CD79A (11719716_a_at) / RFU HIST1H1D (11736915_at) / Fold change /veh HIST1H1D (11736915_at) / RFU CASKIN2 (11723855_a_at) / Fold change /veh CASKIN2 (11723855_a_at) / RFU LOC730098 (11760151_x_at) / Fold change /veh LOC730098 (11760151_x_at) / RFU OR4N2 (11742367_at) / Fold change /veh OR4N2 (11742367_at) / RFU PRRT2 (11749266_a_at) / Fold change /veh PRRT2 (11749266_a_at) / RFU SNX32 (11753110_a_at) / Fold change /veh SNX32 (11753110_a_at) / RFU CDHR5 (11726645_a_at) / Fold change /veh CDHR5 (11726645_a_at) / RFU RCAN1 (11760418_a_at) / Fold change /veh RCAN1 (11760418_a_at) / RFU FAM167A (11723789_a_at) / Fold change /veh FAM167A (11723789_a_at) / RFU FAM26E (11764081_at) / Fold change /veh FAM26E (11764081_at) / RFU ISYNA1 (11749810_s_at) / Fold change /veh ISYNA1 (11749810_s_at) / RFU ACY1 (11761880_at) / Fold change /veh ACY1 (11761880_at) / RFU 11764098_at / Fold change /veh 11764098_at / RFU SAMD14 (11745864_x_at) / Fold change /veh SAMD14 (11745864_x_at) / RFU NPB (11741838_a_at) / Fold change /veh NPB (11741838_a_at) / RFU TMPRSS6 (11731388_a_at) / Fold change /veh TMPRSS6 (11731388_a_at) / RFU KRTAP10-2 (11738614_at) / Fold change /veh KRTAP10-2 (11738614_at) / RFU ARHGAP8 /// PRR5-ARHGAP8 (11727945_x_at) / Fold change /veh ARHGAP8 /// PRR5-ARHGAP8 (11727945_x_at) / RFU KRTAP5-7 /// NADSYN1 (11734609_at) / Fold change /veh KRTAP5-7 /// NADSYN1 (11734609_at) / RFU RASL12 (11751679_a_at) / Fold change /veh RASL12 (11751679_a_at) / RFU CDKN2B (11736163_a_at) / Fold change /veh CDKN2B (11736163_a_at) / RFU PRF1 (11729649_at) / Fold change /veh PRF1 (11729649_at) / RFU, ZNF638 /// ZNF638-IT1 / Fold change vs veh, ZNF638 /// ZNF638-IT1 / RFU, PANK3 / Fold change vs veh, PANK3 / RFU, SH3YL1 / Fold change vs veh, SH3YL1 / RFU, ZEB2 / Fold change vs veh, ZEB2 / RFU, NRIP1 / Fold change vs veh, NRIP1 / RFU, PTTG1IP / Fold change vs veh, PTTG1IP / RFU, CAPN2 / Fold change vs veh, CAPN2 / RFU, MED14 / Fold change vs veh, MED14 / RFU, SNORA58 / Fold change vs veh, SNORA58 / RFU, C1orf63 / Fold change vs veh, C1orf63 / RFU, LRRFIP1 / Fold change vs veh, LRRFIP1 / RFU, NDUFAF7 / Fold change vs veh, NDUFAF7 / RFU, SLC12A2 / Fold change vs veh, SLC12A2 / RFU, IBTK / Fold change vs veh, IBTK / RFU, ESF1 / Fold change vs veh, ESF1 / Fold change vs veh, TMEM50B / RFU, TAOK1 / Fold change vs veh, TAOK1 / RFU, ACBD3 / Fold change vs veh, ACBD3 / RFU, TMA16 / Fold change vs veh, TMA16 / RFU, RWDD3 / Fold change vs veh, RWDD3 / RFU, BCAT1 / Fold change vs veh, BCAT1 / RFU, EDEM3 / Fold change vs veh, EDEM3 / RFU, TMEM33 / Fold change vs veh, TMEM33 / RFU, WDR75 / Fold change vs veh, WDR75 / RFU, AHCTF1 / Fold change vs veh, AHCTF1 / RFU, TFRC / Fold change vs veh, TFRC / RFU, ZDHHC17 / Fold change vs veh, ZDHHC17 / RFU, NOM1 / Fold change vs veh, NOM1 / RFU, ARL8B / Fold change vs veh, ARL8B / RFU, ZBTB11 / Fold change vs veh, ZBTB11 / RFU, TAMM41 / Fold change vs veh, TAMM41 / RFU, KIAA1704 /// LOC100996395 / Fold change vs veh, KIAA1704 /// LOC100996395 / RFU, ING1 / Fold change vs veh, ING1 / RFU, TRMT61B / Fold change vs veh, TRMT61B / RFU, FUBP3 / Fold change vs veh, FUBP3 / RFU, TP53 / Fold change vs veh, TP53 / RFU, TNKS2 / Fold change vs veh, TNKS2 / RFU, ZFP14 / Fold change vs veh, ZFP14 / RFU, ACTR2 / Fold change vs veh, ACTR2 / RFU, PPP3R1 / Fold change vs veh, PPP3R1 / RFU, PIK3R1 / Fold change vs veh, PIK3R1 / RFU, HNRNPA1 / Fold change vs veh, HNRNPA1 / RFU, RNF170 / Fold change vs veh, RNF170 / RFU, ZNF28 / Fold change vs veh, ZNF28 / RFU, RNGTT / Fold change vs veh, RNGTT / RFU, OGT / Fold change vs veh, OGT / RFU, BRD1 / Fold change vs veh, BRD1 / RFU, MARS / Fold change vs veh, MARS / RFU, ZNF655 / Fold change vs veh, ZNF655 / RFU, FAHD1 / Fold change vs veh, FAHD1 / RFU, BDP1 / Fold change vs veh, BDP1 / RFU, LRRCC1 / Fold change vs veh, LRRCC1 / RFU, ARID1A / Fold change vs veh, ARID1A / RFU, ZNF146 / Fold change vs veh, ZNF146 / RFU, ZNF330 / Fold change vs veh, ZNF330 / RFU, GPN3 / Fold change vs veh, GPN3 / RFU, C9orf123 / Fold change vs veh, C9orf123 / RFU, N4BP2L2 / Fold change vs veh, N4BP2L2 / RFU, ARFIP1 / Fold change vs veh, ARFIP1 / RFU, FAM179B / Fold change vs veh, FAM179B / RFU, BCL10 / Fold change vs veh, BCL10 / RFU, UHRF1BP1L / Fold change vs veh, UHRF1BP1L / RFU, BET1 / Fold change vs veh, BET1 / RFU, CNOT2 / Fold change vs veh, CNOT2 / RFU, ZNF268 / Fold change vs veh, ZNF268 / Fold change vs veh, ZNF507 / RFU, DGCR2 / Fold change vs veh, DGCR2 / RFU, WDSUB1 / Fold change vs veh, WDSUB1 / Fold change vs veh, HSP90B1 /// MIR3652 / RFU, ADSS / Fold change vs veh, ADSS / RFU, GK / Fold change vs veh, GK / RFU, ZNF148 / Fold change vs veh, ZNF148 / RFU, TAF9 / Fold change vs veh, TAF9 / RFU, SLC1A5 / Fold change vs veh, SLC1A5 / RFU, SLMO2 / Fold change vs veh, SLMO2 / RFU, ABCC4 / Fold change vs veh, ABCC4 / RFU, LOC101060439 /// RAP1B / Fold change vs veh, LOC101060439 /// RAP1B / RFU, RFX7 / Fold change vs veh, RFX7 / RFU, GTPBP10 / Fold change vs veh, GTPBP10 / RFU, CNEP1R1 / Fold change vs veh, CNEP1R1 / RFU, BIVM-ERCC5 /// ERCC5 / Fold change vs veh, BIVM-ERCC5 /// ERCC5 / RFU, ILF3 / Fold change vs veh, ILF3 / RFU 11762660_at / Fold change /veh 11762660_at / RFU VCAN (11757783_s_at) / Fold change /veh VCAN (11757783_s_at) / RFU DDX43 (11728927_at) / Fold change /veh DDX43 (11728927_at) / RFU KRT8 (11758188_x_at) / Fold change /veh KRT8 (11758188_x_at) / RFU NKD1 (11759106_at) / Fold change /veh NKD1 (11759106_at) / RFU SRD5A1 (11742802_a_at) / Fold change /veh SRD5A1 (11742802_a_at) / RFU TPSAB1 /// TPSB2 (11721975_s_at) / Fold change /veh TPSAB1 /// TPSB2 (11721975_s_at) / RFU GSTM3 (11746129_a_at) / Fold change /veh GSTM3 (11746129_a_at) / RFU IL23R (11737362_x_at) / Fold change /veh IL23R (11737362_x_at) / RFU TMEM51 (11727254_a_at) / Fold change /veh TMEM51 (11727254_a_at) / RFU PIWIL2 (11732686_x_at) / Fold change /veh PIWIL2 (11732686_x_at) / RFU ORM1 (11744905_x_at) / Fold change /veh ORM1 (11744905_x_at) / RFU CCDC152 (11743942_at) / Fold change /veh CCDC152 (11743942_at) / RFU ECM1 (11717891_a_at) / Fold change /veh ECM1 (11717891_a_at) / RFU IL23R (11748794_a_at) / Fold change /veh IL23R (11748794_a_at) / RFU TNFAIP8L3 (11732012_x_at) / Fold change /veh TNFAIP8L3 (11732012_x_at) / RFU MBOAT4 (11741988_at) / Fold change /veh MBOAT4 (11741988_at) / RFU 11764193_at / Fold change /veh 11764193_at / RFU TMEM53 (11763286_at) / Fold change /veh TMEM53 (11763286_at) / RFU MAGEB2 (11727129_at) / Fold change /veh MAGEB2 (11727129_at) / RFU TMEM200A (11744735_a_at) / Fold change /veh TMEM200A (11744735_a_at) / RFU CCDC152 (11751479_a_at) / Fold change /veh CCDC152 (11751479_a_at) / RFU FAM211A (11726209_a_at) / Fold change /veh FAM211A (11726209_a_at) / RFU RGS16 (11746705_a_at) / Fold change /veh RGS16 (11746705_a_at) / RFU VCAN (11755009_s_at) / Fold change /veh VCAN (11755009_s_at) / RFU RHOB (11743442_s_at) / Fold change /veh RHOB (11743442_s_at) / RFU RGS16 (11720943_a_at) / Fold change /veh RGS16 (11720943_a_at) / RFU RGS16 (11720944_at) / Fold change /veh RGS16 (11720944_at) / RFU, VPS4B / Fold change vs veh, VPS4B / RFU, CREB1 / Fold change vs veh, CREB1 / RFU, DNAJC13 / Fold change vs veh, DNAJC13 / RFU, GNAQ / Fold change vs veh, GNAQ / RFU, CDK5R1 / Fold change vs veh, CDK5R1 / RFU, ZRANB3 / Fold change vs veh, ZRANB3 / RFU, CUL4A / Fold change vs veh, CUL4A / RFU, CCNY / Fold change vs veh, CCNY / RFU, UFL1 / Fold change vs veh, UFL1 / RFU, COG3 / Fold change vs veh, COG3 / RFU, DIAPH2 / Fold change vs veh, DIAPH2 / RFU, SKA2 / Fold change vs veh, SKA2 / RFU, AFF3 / Fold change vs veh, AFF3 / RFU, LMF1 / Fold change vs veh, LMF1 / RFU, IPO11 / Fold change vs veh, IPO11 / RFU, DFFB / Fold change vs veh, DFFB / RFU, FOXP1 / Fold change vs veh, FOXP1 / RFU, CARD8 / Fold change vs veh, CARD8 / RFU, STRN3 / Fold change vs veh, STRN3 / RFU, ADK / Fold change vs veh, ADK / RFU, RASSF2 / Fold change vs veh, RASSF2 / RFU, WIPF1 / Fold change vs veh, WIPF1 / RFU, LARP1B / Fold change vs veh, LARP1B / RFU, RASA1 / Fold change vs veh, RASA1 / RFU, RB1 / Fold change vs veh, RB1 / RFU, PPFIA1 / Fold change vs veh, PPFIA1 / RFU, MAT2A / Fold change vs veh, MAT2A / RFU, CCT5 / Fold change vs veh, CCT5 / RFU, WDR92 / Fold change vs veh, WDR92 / RFU, CUX1 / Fold change vs veh, CUX1 / RFU, TTC7A / Fold change vs veh, TTC7A / RFU, TMEM135 / Fold change vs veh, TMEM135 / RFU, DEPTOR / Fold change vs veh, DEPTOR / RFU, CPM / Fold change vs veh, CPM / RFU, DNAJB6 / Fold change vs veh, DNAJB6 / RFU, CACNA2D3 / Fold change vs veh, CACNA2D3 / RFU, DTX4 / Fold change vs veh, DTX4 / RFU, TFCP2 / Fold change vs veh, TFCP2 / RFU, GMCL1 /// GMCL1P1 / Fold change vs veh, GMCL1 /// GMCL1P1 / RFU, AEBP2 / Fold change vs veh, AEBP2 / RFU, SNHG1 /// SNORD22 /// SNORD25 /// SNORD26 /// SNORD27 /// SNORD28 /// SNORD29 /// SNORD31 / Fold change vs veh, SNHG1 /// SNORD22 /// SNORD25 /// SNORD26 /// SNORD27 /// SNORD28 /// SNORD29 /// SNORD31 / Fold change (Aza/veh), C12orf56 (ProbeSet 11735607_a_at) / Fold change (ACY-1035/veh), C12orf56 (ProbeSet 11735607_a_at) / Fold change (Aza/veh), FGFR1OP (ProbeSet 11751329_s_at) / Fold change (ACY-1035/veh), FGFR1OP (ProbeSet 11751329_s_at) / Fold change (Aza/veh), VPS36 (ProbeSet 11739960_a_at) / Fold change (ACY-1035/veh), VPS36 (ProbeSet 11739960_a_at) / RFU SYPL1 (11715823_x_at) / Fold change /veh SYPL1 (11715823_x_at) / RFU IGFBP7 (11715501_s_at) / Fold change /veh IGFBP7 (11715501_s_at) / RFU REEP3 (11722064_at) / Fold change /veh REEP3 (11722064_at) / RFU IGLL1 (11728026_x_at) / Fold change /veh IGLL1 (11728026_x_at): dose or concentration left out as unconfirmed
# Conditions: MV-4-11 cells, 48 hours
smiles,measurement,value
Nc1ncn([C@@H]2O[C@H](CO)[C@@H](O)[C@H]2O)c(=O)n1 [azacitidine],Fold change /veh FAM26E (11764081_at),0.84
